What was measured:
Type in all cases: binding
GALR3 = biological target: T1, GALR3 (Homo sapiens, UniProt O60755); assay: NanoBRET screen HiBiT-GALR3 in HEK293; conditions: GALR3
T1 construct: purchased Promega (in-house HiBiT-GPCR construct library, NanoBRET)
T1 sequence (O60755 1-368): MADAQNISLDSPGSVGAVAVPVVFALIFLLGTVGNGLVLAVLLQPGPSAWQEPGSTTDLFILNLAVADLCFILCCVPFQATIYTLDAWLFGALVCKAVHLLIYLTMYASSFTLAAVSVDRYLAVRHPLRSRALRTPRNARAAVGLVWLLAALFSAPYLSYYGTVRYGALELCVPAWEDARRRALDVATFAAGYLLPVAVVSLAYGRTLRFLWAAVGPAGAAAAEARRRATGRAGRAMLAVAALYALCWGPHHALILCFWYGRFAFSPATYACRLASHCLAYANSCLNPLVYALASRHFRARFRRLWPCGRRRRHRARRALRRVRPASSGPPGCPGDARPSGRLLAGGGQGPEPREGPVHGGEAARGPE
Procedure, shortened: (§1)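 Binding detection relied on energy transfer from complemented HiBiT/LgBiT luciferase to bound tracer. Assays used HEK293 cells transfected with diluted HiBiT-GPCR DNA and tracer at 1 μM or 0.1 μM for 1.5 h.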

P2RY10 = biological target: T2, P2RY10 (Homo sapiens, UniProt O00398); assay: NanoBRET screen HiBiT-P2RY10 in HEK293; conditions: P2RY10
T2 construct: purchased Promega (in-house HiBiT-GPCR construct library, NanoBRET)
Procedure, shortened: as §1

PTGDR = biological target: T3, PTGDR (Homo sapiens, UniProt Q13258); assay: NanoBRET screen HiBiT-PTGDR in HEK293; conditions: PTGDR
T3 construct: purchased Promega (in-house HiBiT-GPCR construct library, NanoBRET)
T3 sequence (Q13258 1-359): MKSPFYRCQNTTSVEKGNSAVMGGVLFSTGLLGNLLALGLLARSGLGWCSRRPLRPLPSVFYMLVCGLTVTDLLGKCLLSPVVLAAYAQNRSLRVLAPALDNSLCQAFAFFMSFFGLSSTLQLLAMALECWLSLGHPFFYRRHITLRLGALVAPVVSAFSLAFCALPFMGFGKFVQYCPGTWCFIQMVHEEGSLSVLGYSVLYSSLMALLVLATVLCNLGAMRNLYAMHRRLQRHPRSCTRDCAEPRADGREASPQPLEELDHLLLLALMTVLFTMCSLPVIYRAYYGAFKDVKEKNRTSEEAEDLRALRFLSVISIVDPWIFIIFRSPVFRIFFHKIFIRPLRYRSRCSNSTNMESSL
Procedure, shortened: as §1

PDGFRB = biological target: T4, PDGFRB (Homo sapiens, UniProt P09619); assay: NanoBRET screen HiBiT-PDGFRB in HEK293; conditions: PDGFRB
T4 construct: purchased Promega (in-house HiBiT-GPCR construct library, NanoBRET)
Procedure, shortened: as §1

MC3R = biological target: T5, MC3R (Homo sapiens, UniProt P41968); assay: NanoBRET screen HiBiT-MC3R in HEK293; conditions: MC3R
T5 construct: purchased Promega (in-house HiBiT-GPCR construct library, NanoBRET)
Procedure, shortened: as §1

P2RY2 = biological target: T6, P2RY2 (Homo sapiens, UniProt P41231); assay: NanoBRET screen HiBiT-P2RY2 in HEK293; conditions: P2RY2
T6 construct: purchased Promega (in-house HiBiT-GPCR construct library, NanoBRET)
Procedure, shortened: as §1

MC4R = biological target: T7, MC4R (Homo sapiens, UniProt P32245); assay: NanoBRET screen HiBiT-MC4R in HEK293; conditions: MC4R
T7 construct: purchased Promega (in-house HiBiT-GPCR construct library, NanoBRET)
Procedure, shortened: as §1

CCR2 = biological target: T8, CCR2 (Homo sapiens, UniProt P41597); assay: NanoBRET screen HiBiT-CCR2 in HEK293; conditions: CCR2
T8 construct: purchased Promega (in-house HiBiT-GPCR construct library, NanoBRET)
Procedure, shortened: as §1

ACKR3 = biological target: T9, ACKR3 (Homo sapiens, UniProt P25106); assay: NanoBRET screen HiBiT-ACKR3 in HEK293; conditions: ACKR3
T9 construct: purchased Promega (in-house HiBiT-GPCR construct library, NanoBRET)
Procedure, shortened: as §1

GCGR = biological target: T10, GCGR (Homo sapiens, UniProt P47871); assay: NanoBRET screen HiBiT-GCGR in HEK293; conditions: GCGR
T10 construct: purchased Promega (in-house HiBiT-GPCR construct library, NanoBRET)
Procedure, shortened: as §1

T9 sequence (P25106 whole entry): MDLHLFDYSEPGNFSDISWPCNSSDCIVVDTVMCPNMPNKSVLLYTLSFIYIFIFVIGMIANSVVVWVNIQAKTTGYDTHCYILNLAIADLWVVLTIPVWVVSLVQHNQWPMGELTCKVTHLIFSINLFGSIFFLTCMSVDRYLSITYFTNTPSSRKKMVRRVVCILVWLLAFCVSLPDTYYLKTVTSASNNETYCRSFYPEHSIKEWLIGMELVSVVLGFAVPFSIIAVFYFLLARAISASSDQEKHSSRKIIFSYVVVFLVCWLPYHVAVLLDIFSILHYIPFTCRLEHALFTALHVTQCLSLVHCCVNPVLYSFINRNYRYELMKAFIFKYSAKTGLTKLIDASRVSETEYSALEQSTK
T8 sequence (P41597 whole entry): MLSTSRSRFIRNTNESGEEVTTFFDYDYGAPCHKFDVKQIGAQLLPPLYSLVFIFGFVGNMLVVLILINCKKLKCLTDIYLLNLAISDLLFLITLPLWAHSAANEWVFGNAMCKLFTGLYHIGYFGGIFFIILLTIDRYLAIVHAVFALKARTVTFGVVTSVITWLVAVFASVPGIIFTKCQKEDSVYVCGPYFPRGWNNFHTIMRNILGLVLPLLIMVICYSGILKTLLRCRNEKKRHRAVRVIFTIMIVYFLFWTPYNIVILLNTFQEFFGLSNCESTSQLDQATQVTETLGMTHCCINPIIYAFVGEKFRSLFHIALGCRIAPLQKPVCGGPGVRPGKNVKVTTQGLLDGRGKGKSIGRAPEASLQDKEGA
T10 sequence (P47871 26-477): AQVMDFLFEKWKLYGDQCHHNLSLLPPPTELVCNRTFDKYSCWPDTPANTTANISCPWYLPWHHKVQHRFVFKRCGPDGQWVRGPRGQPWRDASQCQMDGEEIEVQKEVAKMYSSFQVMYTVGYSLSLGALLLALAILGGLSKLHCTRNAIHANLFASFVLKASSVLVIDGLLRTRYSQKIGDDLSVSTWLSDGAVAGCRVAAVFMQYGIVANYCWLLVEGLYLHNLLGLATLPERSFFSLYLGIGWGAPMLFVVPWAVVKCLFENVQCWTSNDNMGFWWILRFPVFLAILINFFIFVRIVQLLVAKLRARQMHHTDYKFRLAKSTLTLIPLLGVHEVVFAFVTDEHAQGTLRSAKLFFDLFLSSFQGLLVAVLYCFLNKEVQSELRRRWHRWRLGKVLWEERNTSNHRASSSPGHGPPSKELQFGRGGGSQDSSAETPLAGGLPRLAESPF
T5 sequence (P41968 whole entry): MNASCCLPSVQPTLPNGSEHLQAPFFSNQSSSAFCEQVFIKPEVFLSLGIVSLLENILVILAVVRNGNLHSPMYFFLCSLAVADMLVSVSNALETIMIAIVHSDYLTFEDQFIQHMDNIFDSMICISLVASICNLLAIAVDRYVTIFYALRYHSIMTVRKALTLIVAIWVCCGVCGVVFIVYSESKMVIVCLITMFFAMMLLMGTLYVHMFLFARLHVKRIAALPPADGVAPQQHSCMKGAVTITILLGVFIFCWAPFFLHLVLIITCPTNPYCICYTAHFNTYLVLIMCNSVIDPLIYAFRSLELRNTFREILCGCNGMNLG
T4 sequence (P09619 33-1106): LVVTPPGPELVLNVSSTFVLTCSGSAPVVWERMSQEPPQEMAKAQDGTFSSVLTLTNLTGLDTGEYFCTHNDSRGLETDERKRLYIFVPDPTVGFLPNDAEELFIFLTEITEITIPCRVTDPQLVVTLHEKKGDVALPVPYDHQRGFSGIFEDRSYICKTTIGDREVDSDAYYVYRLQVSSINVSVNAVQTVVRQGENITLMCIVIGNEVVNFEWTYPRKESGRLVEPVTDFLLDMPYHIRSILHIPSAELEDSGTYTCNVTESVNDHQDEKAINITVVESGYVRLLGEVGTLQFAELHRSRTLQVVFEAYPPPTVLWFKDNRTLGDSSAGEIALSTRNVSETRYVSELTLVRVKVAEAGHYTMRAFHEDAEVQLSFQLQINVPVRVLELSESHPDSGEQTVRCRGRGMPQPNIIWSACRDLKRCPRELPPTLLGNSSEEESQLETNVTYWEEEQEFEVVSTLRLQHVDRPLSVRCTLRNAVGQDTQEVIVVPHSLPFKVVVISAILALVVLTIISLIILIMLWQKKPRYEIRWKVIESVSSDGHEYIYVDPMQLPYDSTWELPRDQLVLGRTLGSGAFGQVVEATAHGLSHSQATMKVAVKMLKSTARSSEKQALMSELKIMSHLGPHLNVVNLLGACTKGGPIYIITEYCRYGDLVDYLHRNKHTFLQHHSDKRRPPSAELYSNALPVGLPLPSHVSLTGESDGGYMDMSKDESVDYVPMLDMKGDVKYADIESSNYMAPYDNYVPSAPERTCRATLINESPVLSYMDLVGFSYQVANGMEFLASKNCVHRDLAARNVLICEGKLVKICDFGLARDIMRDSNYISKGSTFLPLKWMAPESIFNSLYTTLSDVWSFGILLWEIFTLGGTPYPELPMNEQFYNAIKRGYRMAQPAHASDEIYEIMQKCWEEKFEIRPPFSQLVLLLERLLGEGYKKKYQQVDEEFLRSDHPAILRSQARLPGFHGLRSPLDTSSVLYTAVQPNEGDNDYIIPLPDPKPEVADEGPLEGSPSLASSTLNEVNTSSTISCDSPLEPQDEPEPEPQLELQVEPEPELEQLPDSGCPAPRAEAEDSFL
T6 sequence (P41231 whole entry): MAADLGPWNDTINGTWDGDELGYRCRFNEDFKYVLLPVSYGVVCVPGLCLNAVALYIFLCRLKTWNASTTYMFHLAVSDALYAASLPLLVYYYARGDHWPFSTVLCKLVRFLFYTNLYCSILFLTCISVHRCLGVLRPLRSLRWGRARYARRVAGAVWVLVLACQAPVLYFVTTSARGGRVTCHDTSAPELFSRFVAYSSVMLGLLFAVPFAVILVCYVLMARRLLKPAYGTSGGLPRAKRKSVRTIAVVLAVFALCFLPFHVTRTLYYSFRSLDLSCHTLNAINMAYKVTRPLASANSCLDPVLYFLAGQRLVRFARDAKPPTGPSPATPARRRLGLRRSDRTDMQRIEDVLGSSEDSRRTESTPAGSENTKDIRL
T7 sequence (P32245 whole entry): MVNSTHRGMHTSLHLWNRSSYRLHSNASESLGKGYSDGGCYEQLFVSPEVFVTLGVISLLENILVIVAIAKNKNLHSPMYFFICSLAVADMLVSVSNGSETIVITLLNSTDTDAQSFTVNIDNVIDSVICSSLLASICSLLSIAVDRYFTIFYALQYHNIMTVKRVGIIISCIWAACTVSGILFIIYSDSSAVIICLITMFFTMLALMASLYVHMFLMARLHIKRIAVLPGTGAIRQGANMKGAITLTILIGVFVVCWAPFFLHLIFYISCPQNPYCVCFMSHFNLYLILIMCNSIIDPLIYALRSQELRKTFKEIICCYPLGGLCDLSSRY
T2 sequence (O00398 whole entry, one chain of several): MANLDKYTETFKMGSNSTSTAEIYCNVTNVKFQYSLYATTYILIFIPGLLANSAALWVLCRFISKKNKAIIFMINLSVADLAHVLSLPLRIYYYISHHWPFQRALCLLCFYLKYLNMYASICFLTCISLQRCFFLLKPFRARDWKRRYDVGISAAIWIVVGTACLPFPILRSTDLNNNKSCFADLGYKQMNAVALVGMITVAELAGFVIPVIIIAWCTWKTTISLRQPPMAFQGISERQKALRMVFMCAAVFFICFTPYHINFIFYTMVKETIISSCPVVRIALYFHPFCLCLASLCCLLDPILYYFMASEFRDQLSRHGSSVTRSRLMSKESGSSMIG

| SMILES | NanoBRET Fold Response (GALR3; tracer 0.1μM) | NanoBRET Fold Response (GALR3; tracer 1μM) | NanoBRET Fold Response (P2RY10; tracer 0.1μM) | NanoBRET Fold Response (P2RY10; tracer 1μM) | NanoBRET Fold Response (PTGDR; tracer 0.1μM) | NanoBRET Fold Response (PTGDR; tracer 1μM) | NanoBRET Fold Response (PDGFRB; tracer 0.1μM) | NanoBRET Fold Response (PDGFRB; tracer 1μM) | NanoBRET Fold Response (MC3R; tracer 0.1μM) | NanoBRET Fold Response (MC3R; tracer 1μM) | NanoBRET Fold Response (P2RY2; tracer 0.1μM) | NanoBRET Fold Response (P2RY2; tracer 1μM) | NanoBRET Fold Response (MC4R; tracer 0.1μM) | NanoBRET Fold Response (MC4R; tracer 1μM) | NanoBRET Fold Response (CCR2; tracer 0.1μM) | NanoBRET Fold Response (CCR2; tracer 1μM) | NanoBRET Fold Response (ACKR3; tracer 0.1μM) | NanoBRET Fold Response (ACKR3; tracer 1μM) | NanoBRET Fold Response (GCGR; tracer 0.1μM) | NanoBRET Fold Response (GCGR; tracer 1μM) |
| --- | --- | --- | --- | --- | --- | --- | --- | --- | --- | --- | --- | --- | --- | --- | --- | --- | --- | --- | --- | --- |
| O=C(CCc1ccc2n1[B-](F)(F)[N+]1=C(c3ccc[nH]3)C=CC1=C2)NCCOCCOCCNC(=O)OCCOCCN1CCN(C2=Nc3ccccc3Sc3ccccc32)CC1 [Quetiapine-a-2-NB590] | 1.02 | 0.73 | 0.94 | 0.95 | 0.99 | 1.02 | 1.13 | 1.03 | 0.98 | 1.08 | 1.07 | 0.95 | 0.97 | 1.06 | 1.00 | 0.88 | 0.96 | 0.96 | 0.94 | 0.73 |
| Cc1nc2n(c(=O)c1CCN1CCC(c3noc4cc(F)ccc34)CC1)CCCC2OC(=O)NCCOCCOCCOCCOCCNC(=O)CCc1ccc2n1[B-](F)(F)[N+]1=C(c3ccc[nH]3)C=CC1=C2 (stereo not shown) [Risperidone-2-NB590] | 0.90 | 0.94 | 1.14 | 1.14 | 1.01 | 0.93 | 1.09 | 0.90 | 0.99 | 0.95 | 1.08 | 0.86 | 1.03 | 1.05 | 1.01 | 1.16 | 1.07 | 1.36 | 0.97 | 0.93 |
| CC(C)N(CC[C@H](c1ccccc1)c1cc(CCNC(=O)CCOCCOCCOCCOCCNC(=O)CCc2ccc3n2[B-](F)(F)[N+]2=C(c4ccc[nH]4)C=CC2=C3)ccc1O)C(C)C [Tolterodine-2-NB590] | 0.76 | 0.78 | 0.91 | 0.89 | 1.16 | 0.96 | 1.22 | 0.94 | 0.82 | 1.04 | 1.06 | 1.07 | 1.07 | 1.00 | 1.20 | 0.98 | 0.96 | 1.00 | 1.32 | 1.04 |
| CC(C)N(CC[C@H](c1ccccc1)c1cc(CCNC(=O)c2ccc(CNC(=O)CCc3ccc4n3[B-](F)(F)[N+]3=C(c5ccc[nH]5)C=CC3=C4)cc2)ccc1O)C(C)C [Tolterodine-BZ-NB590] | 1.09 | 1.00 | 1.34 | 0.76 | 1.03 | 0.98 | 1.14 | 1.21 | 1.03 | 1.01 | 1.02 | 1.04 | 1.00 | 1.01 | 0.99 | 0.89 | 0.88 | 0.96 | 0.82 | 1.00 |
| CCCn1c(=O)c2[nH]c(-c3ccc(OCC(=O)NCCNC(=O)CCOCCNC(=O)c4ccc(CNC(=O)CCc5ccc6n5[B-](F)(F)[N+]5=C(c7ccc[nH]7)C=CC5=C6)cc4)cc3)nc2n(CCC)c1=O [XAC-3-NB590] | 1.01 | 1.04 | 0.88 | 0.84 | 1.02 | 1.06 | 0.76 | 0.79 | 1.04 | 1.10 | 0.96 | 0.95 | 1.02 | 1.04 | 1.08 | 1.61 | 1.02 | 1.49 | 1.03 | 0.96 |

From publication PMC8151276, “An Integrated Approach toward NanoBRET Tracers for Analysis of GPCR Ligand Engagement” (Molecules, 2021)
